What all share (experiment): inhibition of tumour cell growth, NCI panel, 48 h
In experiment [1] the test system is EKVX.
Experiment [2] has as its system CAKI-1.
Experiment [3] concerns RPMI-8226.
The subject of experiment [4] is 786-0.
The subject of experiment [5] is BT-549.
For experiment [6], the system named is SF-539.
The test system of experiment [7] is RXF 393.
Experiment [8] concerns HCT-15.
The subject of experiment [9] is KM12.
Experiment [10] has as its system SK-MEL-2.
For experiment [11], the system named is OVCAR-4.
The test system of experiment [12] is NCI-H460.
Experiment [13] relates to NCI-H522.
The subject of experiment [14] is IGROV-1.
The subject of experiment [15] is HT-29.
The subject of experiment [16] is T47D.
Experiment [17] deals with MDA-MB-435.
Experiment [18] has as its system TK-10.
Experiment [19] concerns HOP-92.
In experiment [20] the test system is MCF7.

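Compound exposure: 48 hours, 5 concentrations, 96-well plates. GI50: concentration for 50% inhibition of growth.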 Activity calls are given as the source filed them. Rule as the data show it: active = GI50 up to about 1.1 µM and inactive = higher. Some results are limits rather than exact numbers.

Here are results for ten compounds from ChEMBL document CHEMBL1201862, “PubChem BioAssay data set” (2004).

For `Cc1ccc(I)cc1N=C=S`, the GI50 is 23.7 µM (inactive) in experiment [1]; 24.9 µM (inactive) in experiment [2]; 20.8 µM (inactive) in [3]; 23.6 µM (inactive) in experiment [4]; 13.3 µM (inactive) in experiment [5]; 18.8 µM (inactive) in [6]. In addition, the GI50 in [7] was 20.2 µM (inactive); in [8] it was 17.8 µM; in experiment [9] it was 17.3 µM (inactive); in [10], 17.8 µM (inactive); in experiment [11], 26.9 µM (inactive); in [12], 23.5 µM (inactive). Moreover, the GI50 in experiment [13] was 17.2 µM (inactive); in [14], 28.8 µM (inactive); in [15] it was 23.5 µM (inactive); in experiment [16], 16.1 µM (inactive); in experiment [17], 23.1 µM (inactive); in experiment [18], 36 µM (inactive). Besides, the results for the GI50 in experiment [19] and in experiment [20] were 43.4 µM (inactive) and 21.2 µM (inactive), respectively.

On to `O=C1Nc2ccccc2/C1=N\c1cccc2ncccc12`, for which the GI50 in [1] was 19.1 µM (inactive); in [2], > 100 µM (inactive); in experiment [3] it was 36.5 µM (inactive); in [4] it was > 100 µM (inactive); in experiment [5], > 100 µM (inactive); in experiment [6], > 100 µM (inactive). In addition, the GI50 in [7] was > 100 µM (inactive); in [8] it was 68.1 µM; in experiment [9], 95.1 µM (inactive); in experiment [10] it was > 100 µM (inactive); in experiment [11] it was 68.9 µM (inactive); in [12], 69.7 µM (inactive). For the same compound, the GI50 in experiment [13] is 28.1 µM (inactive); in [14] it was 51.1 µM (inactive); in experiment [15] it was 58.3 µM (inactive); in [16] it was > 100 µM (inactive); in [17] it was 20 µM (inactive); in experiment [18], > 100 µM (inactive). Also, the GI50 in [19] is 42.5 µM (inactive); in experiment [20], 50.5 µM (inactive).

Regarding `O=C(O)/C=C/C=C/c1ccc2c(c1)OCO2` [PIPERIC ACID], the GI50 in [1], in [2], in experiment [3], in [4], in experiment [5] and in [6] was > 100 µM (inactive) in each case. The GI50 is > 100 µM (inactive) in experiment [7]; greater than 100 µM in experiment [8]; > 100 µM (inactive) in experiment [9]; > 100 µM (inactive) in [10]; > 100 µM (inactive) in experiment [11]; > 100 µM (inactive) in [12]. In addition, the GI50 in [13], in experiment [14], in [15], in experiment [16], in experiment [17] and in experiment [18] was > 100 µM (inactive) throughout. Besides, the GI50 in [19] and in [20] was > 100 µM (inactive) in each case.

Consider `N=C(N)N/N=C/c1c(-c2ccc([N+](=O)[O-])cc2)nc2n1CCS2`, for which the GI50 in experiment [1] was 18.3 µM (inactive); in experiment [2] it was 17.5 µM (inactive); in [3] it was 38 µM (inactive); in [4], 6.67 µM (inactive); in experiment [5], 17.1 µM (inactive); in experiment [6] it was 16.3 µM (inactive). Further, the GI50 is 8.51 µM (inactive) in [7]; 18.5 µM in experiment [8]; 4.84 µM (inactive) in experiment [9]; 7.35 µM (inactive) in experiment [10]; 7.85 µM (inactive) in experiment [11]; 15.3 µM (inactive) in [12]. Moreover, the GI50 in [13] is 10.6 µM (inactive); in [14], 17.4 µM (inactive); in [15], 14.5 µM (inactive); in [16] it was 5.13 µM (inactive); in [17] it was 14.8 µM (inactive); in experiment [18], 17.4 µM (inactive). In addition, the GI50 is 18.4 µM (inactive) in experiment [19] and 6.9 µM (inactive) in experiment [20].

`C=C1C(=O)O[C@@H]2C[C@@H](C)[C@@H]3C=CC(=O)[C@@]3(C)[C@@H](OC(=O)CCCC(=O)O[C@H]3[C@@H]4C(=C)C(=O)O[C@@H]4C[C@@H](C)[C@@H]4C=CC(=O)[C@]43C)[C@H]12`: the GI50 was 0.0875 µM (active) in [1]; 0.0323 µM (active) in experiment [2]; 0.0107 µM (active) in experiment [3]; 0.0171 µM (active) in [4]; 0.0252 µM (active) in experiment [5]; 0.0762 µM (active) in experiment [6]. In addition, the GI50 in [7] was 0.0187 µM (active); in experiment [8], 0.0335 µM; in experiment [9] it was 0.231 µM (active); in experiment [10], 0.152 µM (active); in experiment [11], 0.0455 µM (active); in experiment [12], 0.27 µM (active). The GI50 in experiment [13] is 0.0102 µM (active); in experiment [14], 0.112 µM (active); in experiment [15], 0.0352 µM (active); in [16], 0.0214 µM (active); in experiment [17], 0.0167 µM (active); in experiment [18], 0.0682 µM (active). Further, the GI50 in experiment [19] is 0.034 µM (active); in [20], 0.0348 µM (active).

On to `O=C1C=CC(=O)C(CNc2ccc(C(=O)OC34CC5CC(CC(C5)C3)C4)cc2)=C1Br`, for which the GI50 in experiment [1] is 6.46 µM (inactive); in [2], 3.52 µM (inactive); in [3] it was 5.6 µM (inactive); in [4], 13.2 µM (inactive); in [5] it was 5.33 µM (inactive); in experiment [6] it was 1.59 µM (inactive). In addition, the GI50 in experiment [7] was 4.98 µM (inactive); in experiment [8], 5.19 µM; in experiment [9] it was 5.62 µM (inactive); in [10] it was 15.4 µM (inactive); in experiment [11] it was 5.19 µM (inactive); in experiment [12], 11.5 µM (inactive). In addition, the GI50 in [13] was 0.435 µM (active); in experiment [14], 3.73 µM (inactive); in [15], 5.01 µM (inactive); in [16], 3.33 µM (inactive); in [17], 14.7 µM (inactive); in experiment [18] it was 13.9 µM (inactive). The GI50 in [19] was 2.34 µM (inactive); in experiment [20], 15.9 µM (inactive).

`CCOC(=O)C#Cc1cccc(C#CC(=O)OCC)c1`: the GI50 is 1.14 µM (inactive) in [1]; 4.93 µM (inactive) in experiment [2]; 4.71 µM (inactive) in experiment [3]; 4.47 µM (inactive) in experiment [4]; 2.28 µM (inactive) in [5]; 5.14 µM (inactive) in [6]. Besides, the GI50 in experiment [7] is 5.31 µM (inactive); in [8] it was 3.31 µM; in experiment [9], 6.65 µM (inactive); in [10], 2.19 µM (inactive); in [11] it was 3.59 µM (inactive); in experiment [12], 11.1 µM (inactive). In addition, the GI50 in experiment [13] was 15.8 µM (inactive); in experiment [14] it was 18.2 µM (inactive); in experiment [15], 4.81 µM (inactive); in experiment [16] it was 42.3 µM (inactive); in [17], 4.59 µM (inactive); in experiment [18], 5.47 µM (inactive). Also, the GI50 was 5.87 µM (inactive) in experiment [19] and 5.62 µM (inactive) in [20].

`CC(C)(C)N/N=C(\C(=O)Nc1ccc([N+](=O)[O-])cc1[N+](=O)[O-])c1nc2ccc([N+](=O)[O-])cc2nc1O`: the GI50 was > 100 µM (inactive) in experiment [1]; > 100 µM (inactive) in experiment [2]; 13.2 µM (inactive) in experiment [3]; > 100 µM (inactive) in experiment [4]; > 100 µM (inactive) in experiment [5]; > 100 µM (inactive) in [6]. For the same compound, the GI50 in experiment [7] is > 100 µM (inactive); in experiment [8] it was 43.4 µM; in experiment [9] it was 34.4 µM (inactive); in experiment [10], > 100 µM (inactive); in experiment [11] it was 33.3 µM (inactive); in experiment [12], 31.8 µM (inactive). Also, the GI50 in experiment [13] was 66.7 µM (inactive); in experiment [14], > 100 µM (inactive); in experiment [15], > 100 µM (inactive); in experiment [16], 36.3 µM (inactive); in experiment [17], > 100 µM (inactive); in experiment [19], > 100 µM (inactive). For the same compound, the GI50 in experiment [20] was 79.6 µM (inactive).

Consider `CC(C)(N)CO[C@H]1C[C@H]2CC[C@@]1(C)C2(C)C`, for which the GI50 is 28.3 µM (inactive) in [1]; 20.2 µM (inactive) in [2]; 15.7 µM (inactive) in experiment [3]; 16.2 µM (inactive) in experiment [4]; 23.1 µM (inactive) in experiment [5]; 22.4 µM (inactive) in experiment [6]. Also, the GI50 was 12.9 µM (inactive) in experiment [7]; 19.8 µM in [8]; 18.1 µM (inactive) in experiment [9]; 18.5 µM (inactive) in [10]; 23.1 µM (inactive) in experiment [11]; 17.9 µM (inactive) in [12]. Also, the GI50 in [13] was 18.7 µM (inactive); in experiment [14] it was 39.2 µM (inactive); in experiment [15], 12.4 µM (inactive); in experiment [16], 16 µM (inactive); in [17] it was 16.3 µM (inactive); in [18], 20 µM (inactive). For the same compound, the GI50 is 14.2 µM (inactive) in [19] and 19.4 µM (inactive) in experiment [20].

With `O=[N+]([O-])c1ccc2c3c1[C@H]1O[C@H]1c1cccc(c1-3)[C@@H]1O[C@H]21`, the GI50 was 2.03 µM (inactive) in [1]; 1.99 µM (inactive) in experiment [2]; 1.23 µM (inactive) in [3]; 1.96 µM (inactive) in experiment [4]; 1.99 µM (inactive) in experiment [5]; 2.3 µM (inactive) in [6]. For the same compound, the GI50 in experiment [7] was 1.78 µM (inactive); in experiment [8] it was 1.71 µM; in [9] it was 2.35 µM (inactive); in experiment [10] it was 2.52 µM (inactive); in [11] it was 2.12 µM (inactive); in [13], 1.67 µM (inactive). Moreover, the GI50 was 2.01 µM (inactive) in experiment [15]; 2.08 µM (inactive) in experiment [16]; 1.85 µM (inactive) in [17]; 2.96 µM (inactive) in experiment [18]; 2.18 µM (inactive) in [19]; 2.11 µM (inactive) in experiment [20].
